Patent US20060183784A1, “Human growth hormone antagonists” (Genentech, Inc., priority 2001, published 2006)
pIC50: −log10 of the molar value.

target: binding of biotinylated human growth hormone (b-hGH) to the extracellular domain of its receptor (Homo sapiens, UniProt P01241); test: ELISA of binding of biotinylated human growth hormone (b-hGH) to the extracellular domain of its receptor; settings: inhibition of b-hGH (about 1.5 nM) binding to receptor-coated plates; compounds re-tested at multiple concentrations
Sequence (P01241 27-217): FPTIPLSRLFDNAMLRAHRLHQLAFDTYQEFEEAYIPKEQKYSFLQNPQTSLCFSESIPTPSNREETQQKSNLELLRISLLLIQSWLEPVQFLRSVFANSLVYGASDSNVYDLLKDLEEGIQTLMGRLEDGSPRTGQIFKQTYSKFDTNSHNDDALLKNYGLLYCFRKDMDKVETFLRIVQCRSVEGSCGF
Description: A collection of heterocyclic aromatic compounds (384 total; 1 mmol each) was obtained from Aldrich Chemical Company or prepared as described in Holan et al., J. Chem Soc. C, 20-25 (1967)) incorporated herein by reference. Each compound was dissolved in dimethyl sulfoxide (DMSO) to yield a 100-mM solution and arrayed in 96-well polypropylene deep-well plates (Beckman). Dilutions (10-fold in DMSO) were prepared from the parent plates; these 10-mM stocks were then diluted 50-fold in the screening assay as described below (200 μM final concentration; 2% DMSO).
Human growth hormone (100 μM) in phosphate-buffered saline (PBS) was treated with 2 molar equivalents of EZ-Link Sulfo-NHS-LC-biotin™ (Pierce 21335™) according to the manufacturer's instructions. Binding of the biotinylated human growth hormone (b-hGH) to the extracellular domain of its receptor was assayed in an ELISA format. Briefly, Nunc Maxi-Sorb™ 96-well plates were treated with a solution of the receptor (2 μg/mL) in phosphate-buffered saline (PBS) overnight at 4° C. Plates were then blocked with a 0.2% solution of bovine serum albumin (BSA; Sigma A-7638) in PBS for 2 hours at room temperature. An appropriate dilution of b-hGH (generally about 1.5 nM final concentration in PBS containing 0.05% Tween-20 T detergent) was added to polypropylene plates containing aliquots of the screening collection (147 μL b-hGH to 3 μL compound in DMSO) or DMSO alone, and the mixtures were allowed to equilibrate at room temperature for approximately 45 min. These mixtures were then transferred to the receptor-coated plates and allowed to stand for 15 min. Plates were washed (10 times) with PBS/Tween-20™. Streptavidin-HRP conjugate (Zymed Laboratories 43-4323™) followed by TMB peroxidase reagent (Kirkegaard & Perry Laboratories 50-76-03™) was used to detect bound b-hGH. Several potential inhibitor compounds were re-tested at multiple concentrations. Table 1 below provides IC50 of the compounds tested.

Row | Structure (SMILES) | pIC50
1 | Clc1ccc2nc(C(Cl)(Cl)Cl)[nH]c2c1 [(i)] | 4.11
2 | ClC(Cl)(Cl)c1nc2ccccc2[nH]1 [(ii)] | 3.77
3 | Cn1c(C(Cl)(Cl)Cl)nc2ccccc21 [(iii)] | 3.82
4 | Cc1ccc2[nH]c(C(Cl)(Cl)Cl)nc2c1 [(iv)] | 4.01
5 | Clc1ccc2[nH]cnc2c1 [(vii)] | < 3.00
6 | ClC(Cl)(Cl)c1nc2ccccc2s1 [(x)] | < 3.00
7 | Cc1ccc2[nH]cnc2c1 [(xiii)] | < 3.00

Now from value to molecule:

Row | pIC50 | Structure (SMILES)
8 | < 3.00 | ClC(Cl)(Cl)c1nc2ccccc2o1 [(ix)]
9 | 4.29 | Clc1cc2nc(C(Cl)(Cl)Cl)[nH]c2cc1Cl [(v)]
10 | < 3.00 | FC(F)(F)c1nc2cc(Cl)ccc2[nH]1 [(vi)]
11 | < 3.00 | Cc1nc2cc(Cl)ccc2[nH]1 [(viii)]
12 | < 3.00 | Cc1nc2ccccc2[nH]1 [(xi)]
13 | < 3.00 | c1ccc2[nH]c(-c3cscn3)nc2c1 [(xii)]
